{"source": "patent US20050169991A1", "about": "“Sustained release torsemide dosage forms” (Penwest Pharmaceuticals Co., priority 2003, published 2005)", "origin": "cited, not measured here", "details": "in vivo"}
{"smiles": "Cc1cccc(Nc2ccncc2S(=O)(=O)NC(=O)NC(C)C)c1", "note": "[Torsemide]", "values": [{"measurement": "half-life", "value": 6, "unit": "h"}]}
